Among the data in BindingDB's records for doi:10.7270/Q2T72FW8 (Broad Institute, 2010) are EC50 values, retold here.

The experiment addresses T1, S-ribosylhomocysteine lyase (Vibrio harveyi, UniProt B0LUE4).
T1 sequence (B0LUE4 whole entry): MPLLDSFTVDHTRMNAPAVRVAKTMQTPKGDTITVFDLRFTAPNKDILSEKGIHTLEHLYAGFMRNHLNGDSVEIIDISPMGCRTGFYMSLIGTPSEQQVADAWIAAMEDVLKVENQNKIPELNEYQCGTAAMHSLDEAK
The experiment can be described thus: bacterial growth suppression, V. harveyi cultures – absorbance, dose retest, counter-screen for AI-2 quorum sensing modulator project, confirmation (AID 2725).
Turning to `C=Cn1c(C(=O)O)ccc1-c1ccc(CC)cc1`, the EC50 (usually the concentration at which the effect is half-maximal) is greater than 160 µM.
`COc1cc(NC(=O)CN2C(=O)NC(c3ccccc3)(c3ccccc3)C2=O)cc(OC)c1` [MLS001176525] came in with an EC50 of 13.7 µM.
To `CN(C)S(=O)(=O)c1ccc(NC(=S)NC(=O)Cc2ccccc2)cc1` [N-[[4-(dimethylsulfamoyl)phenyl]carbamothioyl]-2-phenyl-ethanamide] belongs greater than 160 µM; to `CCCc1ccc(S(=O)(=O)N(C)S(=O)(=O)c2ccc(F)cc2)cc1` [N-(4-fluorophenyl)sulfonyl-N-methyl-4-propylbenzenesulfonamide], 4.55 µM.
For `CCc1ccc(S(=O)(=O)Nc2ccc(Br)cn2)cc1` [MLS001211346] the value was greater than 160 µM; for `Cc1cccc(NS(=O)(=O)c2ccc(Oc3ccccc3)cc2)n1` [SMR000071466], greater than 160 µM; for `Cn1cnc(S(=O)(=O)Nc2ccc(OC(F)(F)F)cc2)c1` [SMR000314513], greater than 160 µM.
